We go through one compound from US9802904B2, “Inhibitors of the USP1/UAF1 deubiquitinase complex and uses thereof” (The United States of America, as represented by the …, priority 2012, dated 2017).

Common to all, as to assay type: cell-based, human
Experiment [1] concerns USP1/UAF1 cellular activity in H596 cells. Briefly: PCNA and FANCD2 monoubiquitination in H596 cells (Western blot). As to conditions: 30 μM compound 81, 6 hr, as compared to control. The protocol: (§1) HEK293T or H596 cells were plated in 10 cm dishes and synchronized in S-phase with the double-thymidine block method as described previously (Chen et al., Chemistry & Biology, 2011. 18(11): 1390-400). […] Negative control cells were treated with an equal volume of DMSO and saline (0.9% NaCl). After 6 hr at 37° C., cells were harvested and lysed. Cell extracts were separated on SDS-PAGE and transferred to nitrocellulose membrane. The membranes were then blotted with PCNA antibody or FANCD2 antibody, followed by incubation with HRP-conjugated anti-mouse secondary antibody. Images were quantified in FluorChem Q software (Imgen Technologies).

A further experiment concerns U2OS cells. Briefly: Cytotoxicity assay in osteosarcoma U2OS cell line. The settings on record: Homo sapiens, U2OS; alone; read-out: EC50 of killing U2OS cells. The protocol: (§2) The H596 [human non-small cell lung cancer (NSCLC)] cell line was cultured in RFMI-1640 medium containing 10% fetal bovine serum (FBS) at 37° C. and 5% CO2. The HEK293T (human embryonic kidney 293T), U2OS (human osteosarcoma), and HCT116 (human colon cancer) cell lines were cultured in Dulbecco's modified Eagle's medium (DMEM) supplemented with 10% FBS at 37° C. and 5% CO2. All culture mediums contain 100 units/mL penicillin and 0.1 mg/mL streptomycin as antibiotics.
(§3) For cytotoxicity assays, 5×10^3 H596 cells were seeded in each well of the 96-well plate and grown for 24 hr in humidified incubator. […] In the combination assay, cisplatin was dissolved in saline solution and compound 81 was dissolved in DMSO. Equal volume of above solutions was added to each well and cells were incubated for 48 hr. Cells treated with equal volume of DMSO and saline were used as control and designated as 100% viability. The cell viability was measured by CCK-8 solution (Dojindo Molecular Technologies, Inc) as previously described (Chen, J., et al.).
Cytotoxicity assays were run as described in Example 6 using the cisplatin-sensitive NSCLC H460 cell line and the osteosarcoma U2OS cell line.

The next experiment concerns H596 cells. Briefly: Cytotoxicity assay in H596 cells (CCK-8 cell viability). The settings on record: Homo sapiens, NCI-H596; alone, 48 hr; read-out: EC50 of killing H596 cells. The protocol:
as §2, §3

The subject of experiment [2] is USP1/UAF1 cellular activity in HEK293T cells. Briefly: PCNA and FANCD2 monoubiquitination in HEK293T cells (Western blot). As to conditions: 30 μM compound 81, 6 hr, as compared to control. The protocol: as §1
(In general: Immunoblotting shows a protein as a band on a membrane.)

With `Cc1cnc(-c2ccccc2C(C)C)nc1NCc1ccc(-n2ccnn2)cc1` [Compound 81, N-(4-(1H-1,2,3-triazol-1-yl)benzyl)-2-(2-isopropylphenyl)-5-methylpyrimidin-4-amine], the “PCNA and FANCD2 monoubiquitination” value in experiment [1] is “increase in PCNA and FANCD2 monoubiquitination”; in experiment [2] it was “increase in PCNA and FANCD2 monoubiquitination”. In addition, the EC50 in the experiment with U2OS cells and with H596 cells was > 10 µM in each case.

One may read the EC50 as the concentration that produces a half-maximal response.
